Marks after values point to notes of the source that are not given here.
Key:
[1] = system: rats; test: Physical dependence test: induced withdrawal test for the rats; details: rat, in vivo
Procedure: The compound group was administered (ig) twice a day according to the dose increasing principle, at daily doses of 0.5, 1.0, 1.5, 2.0, 2.5, 3.0 g/kg. The dose was increased every day from 0.5 g/kg to 3.0 g/kg on day 6 which was adopted the same on day 7. The negative control group was given (ig) the same volume of vegetable oil per day at the same time and for the same times as the compound group. On day 8, the rats in each group were given naloxone (5 mg/kg, ip) to induce withdrawal, and the withdrawal status of the rats within 30 min and the weight change one hour before and after the inducement were observed. The evaluation criteria of withdrawal symptoms of rats were established by referring to the Tomoji Yanagita evaluation criteria and our pre-experimental results (see Appendix Table 17). The withdrawal scores and weight loss values of each group of rats were statistically processed. Weight loss value=weight before inducement−weight after inducement.

[2] = system: morphine-dependent rats; test: Therapeutic effect on naloxone-induced withdrawal symptoms of morphine-dependent rats; format: in vivo, Sprague-Dawley (SD) rats; details: for Scores of induced withdrawal symptoms of rats: naloxone 5.0 mg/kg ip, 30 min
Procedure: The administration continued for 3 days for each group of rats. Rats were free to drink and eat. Naloxone (5.0 mg/kg, ip) was given 45 min after administrations on d1 and d3 during the treatment to induce withdrawal symptoms, and withdrawal reaction in 30 min and body weights one hour before and after the inducement were observed.
Times of shaking like a wet dog, stereotyped acts, erecting and jumping in 30 minutes were directly scored; symptoms such as ptosis, irritability, tooth tremor, chewing, pilus erection, abnormal posture and rapid respiration were scored every 5 minutes; symptoms such as diarrhea, lacrimation, salivation and rhinorrhea were scored every 30 minutes. The sum of all scores was the total score of the withdrawal reaction. See Appendix Table 2.

[3] = system: morphine-dependent mice; test: Therapeutic effect on naloxone-induced withdrawal symptoms of morphine-dependent mice; format: in vivo, Kunming mice; details: for Times of jumping reactions of mice: naloxone 8.0 mg/kg ip
Procedure: The model of morphine-dependent mice was replicated by the dose-increasing method. […] Group (1) was a blank control group, injected subcutaneously (sc) with normal saline (0.2 ml/10 g), and groups (2)˜(5) were used to replicate the model of morphine-dependent mice by the dose-increasing method.
The administration continued for 3 days for each group. Mice were free to drink and eat. Naloxone (8.0 mg/kg, ip) was given 1 h after administrations on d1 and d3 during the treatment to induce withdrawal symptoms, and jumping reaction in 30 min and body weights before and after the inducement were observed.

[4] = system: morphine-induced place preference of mice; test: Conditioned place preference of morphine-induced mice; format: in vivo, Kunming mice
Procedure: The mice were acclimatized for 3 days, the natural place preference time of the mice was measured before the administration, so that the mice with obvious preference on one cuboid of the experimental box were excluded to clear the effect of unconditional place preference on the results. […] The observation was conducted under sound insulation conditions. […] Thus, the white cuboid was used as the non-preferred side (i.e., the companion box).
After 6 consecutive days of training and administration, the mice developed conditioned place preference.
Each group was administered for 3 consecutive days.

[5] = system: mice; test: Physical dependence test: induced withdrawal test for the mice; details: mouse, in vivo
Procedure: The daily doses were 25, 50, 75, 100, 125, 150 mg/kg according to the dose increasing principle, increased day by day, reached 150 mg/kg on day 6 which was adopted the same on day 7. The compound group was administered (ig) twice daily (8:00 am, 8:00 pm) at daily doses of 0.6, 1.2, 1.8, 2.4, 3.0, 3.6 g/kg. The dose increased every day from 0.6 g/kg to 3.6 g/kg on day 6 which was adopted the same on day 7. The negative control group was given (ig) the same volume of vegetable oil every day at the same time and for the same times as the compound group. On day 7, naloxone (8 mg/kg, ip) was given to each group of mice to induce withdrawal. The jump reaction within 30 min and weight change one hour before and after inducement were observed. Weight loss value=weight before inducement−weight after inducement.

[6] = system: mice; test: Amphetamine-induced hyperexcitability test of mice; format: in vivo, Kunming mice
Procedure: Forty Kunming mice, half males and half females, were fasted for 12 h but free to drink water. The mice were randomly divided into four groups: a blank control group, a low does Compound group (0.4 g/kg, ig), a high dose Compound group (0.8 g/kg, ig) and a positive drug control group (Estazolam, 2 mg/kg). The mice were placed into the YLS-1A multifunctional recorder for spontaneous activities of small animals. After 5 minutes of adaptation, the number of the mice's spontaneous activities before administration were recorded, and the recording lasted for 10 minutes. The room was kept quiet during recording, at a room temperature of 20-24° C. After this, each group of mice was administered according to the above doses, and the blank control group was given the same volume of normal saline (ig). Thirty minutes after administration, each mouse was given an intraperitoneal injection of amphetamine (8 mg/kg). Fifteen minutes later, the mice were placed in the recorder to observe and record the number of activities within 10 min.

[7] = system: mice; test: Morphine-induced hyperexcitability test of mice; format: in vivo, Kunming mice
[8] = Before administration, high dose group
[9] = Before administration, low dose group

## CC1(C)O[C@H]2CC[C@@]3(C)[C@@H]([C@@H](O)[C@H](O)[C@@H]3[C@@](C)(O)CC[C@@H]3OC(C)(C)[C@H]4CC[C@]3(C)O4)[C@]2(C)CC[C@H]1O [the compound, limaxol A]
[1]
  Withdrawal symptoms after administration of the compound, rats: no obvious withdrawal symptoms
[2]; d 1, high dose 0.6 g/kg ig
  Body Weight Change (Body Weight before Inducement − Body Weight after Inducement): 14.7 ± 4.08 g
  Scores of induced withdrawal symptoms of rats: 53.8 ± 16.23
[2]; d 1, low dose 0.3 g/kg ig
  Body Weight Change (Body Weight before Inducement − Body Weight after Inducement): 11.8 ± 3.25 g
  Scores of induced withdrawal symptoms of rats: 74.9 ± 42.03
[2]; d 3, high dose 0.6 g/kg ig
  Body Weight Change (Body Weight before Inducement − Body Weight after Inducement): 1.9 ± 2.13 g
  Scores of induced withdrawal symptoms of rats: 22.1 ± 10.90
[2]; d 3, low dose 0.3 g/kg ig
  Body Weight Change (Body Weight before Inducement − Body Weight after Inducement): 4.5 ± 2.59 g
  Scores of induced withdrawal symptoms of rats: 25.5 ± 12.26
[2]; two doses (0.3, 0.6 g/kg) ig
  Effect on changes of the body weight of rats: no significant effect
  Effect on withdrawal symptoms of morphine-dependent rats: partially control the withdrawal symptoms
[3]; d 1, high dose 0.8 g/kg ig
  Numbers of jumping reactions of mice (mice of n = 10): 10
  Numbers of jumping reactions of mice, percentage: 100%
  Weight change: body weights of mice before and after induced withdrawal: 0.26 ± 0.21 g
  Times of jumping reactions of mice: 35.0 ± 12.28 per 30 min
[3]; d 1, low dose 0.4 g/kg ig
  Numbers of jumping reactions of mice (mice of n = 10): 10
  Numbers of jumping reactions of mice, percentage: 100%
  Weight change: body weights of mice before and after induced withdrawal: 0.18 ± 0.13 g
  Times of jumping reactions of mice: 13.5 ± 10.29 per 30 min
[3]; d 3, high dose 0.8 g/kg ig
  Numbers of jumping reactions of mice (mice of n = 10): 10
  Numbers of jumping reactions of mice, percentage: 100%
  Weight change: body weights of mice before and after induced withdrawal: 0.43 ± 0.23 g
  Times of jumping reactions of mice: 8.5 ± 2.68 per 30 min
[3]; d 3, low dose 0.4 g/kg ig
  Numbers of jumping reactions of mice (mice of n = 10): 10
  Numbers of jumping reactions of mice, percentage: 100%
  Weight change: body weights of mice before and after induced withdrawal: 0.36 ± 0.28 g
  Times of jumping reactions of mice: 6.2 ± 5.86 per 30 min
[3]; ig, 0.4 and 0.8 g/kg
  Effect on jumping reaction during induced withdrawal: inhibited jumping reaction
  Effect on weight loss of the morphine-dependent mice: inhibited weight loss
[4]; After administration, high dose 0.8 g/kg ig 3 days + morphine 9 mg/kg sc, 15 min observation
  Duration of mice staying in companion box: 511.8 ± 90.66*^ΔΔ s
[4]; After administration, low dose 0.4 g/kg ig 3 days + morphine 9 mg/kg sc, 15 min observation
  Duration of mice staying in companion box: 438.1 ± 116.45^#Δ s
[4]; Before administration (base line), high dose 0.8 g/kg + morphine 9 mg/kg group
  Duration of mice staying in companion box: 256.3 ± 114.43 s
[4]; Before administration (base line), low dose 0.4 g/kg + morphine 9 mg/kg group
  Duration of mice staying in companion box: 296.0 ± 142.93 s
[4]; two doses (0.4, 0.8 g/kg) ig for 3 days
  Effect on conditioned place preference of the morphine-induced mice: no significant effect
[5]
  Behaviour of mice after administration: quiet without tail erecting reaction or excitatory movement
  Withdrawal symptoms after administration of the compound, mice: no obvious withdrawal symptoms
[6]; 0.4, 0.8 g/kg, ig
  Effect on excitability induced by amphetamine: inhibit the increase of excitability induced by morphine and amphetamine
[6]; After administration, high dose 0.8 g/kg ig, amphetamine 8 mg/kg
  Number of activities, amphetamine-induced excitability: 132.6 ± 26.26**^Δ▴▴ Times per min
[6]; After administration, low dose 0.4 g/kg ig, amphetamine 8 mg/kg
  Number of activities, amphetamine-induced excitability: 130.6 ± 32.11**^Δ▴ Times per min
[6]; [8]
  Number of activities, amphetamine-induced excitability: 197.4 ± 39.30 Times per min
[6]; [9]
  Number of activities, amphetamine-induced excitability: 192.0 ± 45.06 Times per min
[7]; 0.4, 0.8 g/kg, ig
  Effect on excitability induced by morphine: inhibit the increase of excitability induced by morphine and amphetamine
[7]; After administration, high dose 0.8 g/kg ig, morphine 10 mg/kg
  Number of activities, morphine-induced excitability: 112.7 ± 23.04**^Δ▴▴ Times per min
[7]; After administration, low dose 0.4 g/kg ig, morphine 10 mg/kg
  Number of activities, morphine-induced excitability: 102.0 ± 46.29**^Δ▴ Times per min
[7]; [8]
  Number of activities, morphine-induced excitability: 185.4 ± 36.93 Times per min
[7]; [9]
  Number of activities, morphine-induced excitability: 191.5 ± 35.53 Times per min
